The experiment deals with T1, recombinant human PKM2 (Homo sapiens, UniProt P14618).
T1 construct: His (N); purchased R&D Systems
As to the kind of experiment: Human PKM2 activation assay (Kinase-Glo Plus luminescent detection of generated ATP). It is filed as biochemical. The following applies: for Emax: percentage activation normalised to DMSO vehicle (LOW) and 5 μM TEPP-46 (HIGH), read-out: hPKM2 Emax; for EC50: recombinant human PKM2 activation, 4-parameter logistic fit, read-out: hPKM2 EC50. The gist of the method:
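Luminescent ATP detection (Kinase-Glo Plus, 15 min, 26 °C) followed a 60 min, 26 °C shaken reaction of compound with […] His-tagged human PKM2, PEP and ADP in imidazole/KCl/MgCl2 buffer with Tween20 and BSA, pH 7.2.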
(In Kinase-Glo more light means more ATP remaining.)

Here are results for twelve molecules from US20260152487A1 (Sitryx Therapeutics Limited, priority 2021, published 2026).

The Emax is the size of the effect at its maximum, as opposed to the concentration needed. Broadly, the EC50 is the concentration needed to bring the measured effect to its halfway point.

T1 sequence (P14618 2-531 limits assumed): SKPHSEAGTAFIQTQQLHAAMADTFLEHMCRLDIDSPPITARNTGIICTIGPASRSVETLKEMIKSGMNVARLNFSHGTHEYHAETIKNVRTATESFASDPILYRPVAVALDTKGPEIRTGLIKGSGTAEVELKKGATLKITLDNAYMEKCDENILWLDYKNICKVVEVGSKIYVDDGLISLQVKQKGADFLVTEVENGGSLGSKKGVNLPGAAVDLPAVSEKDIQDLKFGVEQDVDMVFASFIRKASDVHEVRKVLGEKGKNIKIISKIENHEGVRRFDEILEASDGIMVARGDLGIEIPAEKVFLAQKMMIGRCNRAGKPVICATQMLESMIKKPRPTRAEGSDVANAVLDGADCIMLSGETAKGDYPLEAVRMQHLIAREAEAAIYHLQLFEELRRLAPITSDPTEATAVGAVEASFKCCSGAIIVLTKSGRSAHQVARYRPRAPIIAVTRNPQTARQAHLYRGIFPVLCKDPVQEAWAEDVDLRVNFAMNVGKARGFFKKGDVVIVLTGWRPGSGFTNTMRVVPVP

On to `Cc1c[nH]nc1Cn1ncc2cc(S(=O)(=O)c3ccc4c(c3)CCO4)ccc2c1=O` [Example 208, 6-((2,3-dihydrobenzofuran-5-yl)sulfonyl)-2-((4-methyl-1H-pyrazol-3-yl)methyl)phthalazin-1(2H)-one], for which the Emax was 104% and the EC50 was 33.3 nM.
With `Cc1cc(Cn2ncc3cc(S(=O)(=O)c4ccc5c(c4)CCO5)ccc3c2=O)n[nH]1` [Example 209, 6-((2,3-dihydrobenzofuran-5-yl)sulfonyl)-2-((5-methyl-1H-pyrazol-3-yl)methyl)phthalazin-1(2H)-one], the Emax was found to be 118% and the EC50 was 23.2 nM.
Consider `Cn1ccc(S(=O)(=O)c2ccc3c(=O)n(Cc4ccccc4C(N)=O)ncc3c2)n1` [Example 210, 2-((6-(1-methyl-1H-pyrazol-3-ylsulfonyl)-1-oxophthalazin-2(1H)-yl)methyl)benzamide], for which the Emax worked out at 87.4% and the EC50 amounted to 318 nM.
As to `O=c1c2ccc(S(=O)(=O)c3ccccn3)cc2cnn1Cc1cc[nH]n1` [Example 211, 2-((1H-pyrazol-3-yl)methyl)-6-(pyridin-2-ylsulfonyl)phthalazin-1(2H)-one], the Emax was found to be 80.7% and the EC50 is 222 nM.
Regarding `Cn1ccc(Cn2ncc3cc(S(=O)(=O)c4ccc(OC(F)F)cc4)ccc3c2=O)n1` [Example 212, 6-((4-(difluoromethoxy)phenyl)sulfonyl)-2-((1-methyl-1H-pyrazol-3-yl)methyl)phthalazin-1(2H)-one], the maximal effect (Emax) worked out at 108% and the EC50 was determined as 23.8 nM.
Turning to `CC1Cc2cc(S(=O)(=O)c3ccc4c(=O)n(Cc5ccn(C)n5)ncc4c3)ccc2O1` (stereo not drawn) [Example 213, 2-((1-methyl-1H-pyrazol-3-yl)methyl)-6-((2-methyl-2,3-dihydrobenzofuran-5-yl)sulfonyl)phthalazin-1(2H)-one], the maximum response (Emax) was 107% and the concentration for a half-maximal effect (EC50) came out at 36.5 nM.
Turning to `Cc1nc(S(=O)(=O)c2ccc3c(=O)n(Cc4ccn(C)n4)ncc3c2)cs1` [Example 214, 2-((1-methyl-1H-pyrazol-3-yl)methyl)-6-((2-methylthiazol-4-yl)sulfonyl)phthalazin-1(2H)-one], the Emax was determined as 102% and the EC50 was 254 nM.
Turning to `Cn1ccc(Cn2ncc3cc(S(=O)(=O)c4ccc5c(c4)OCCO5)ccc3c2=O)n1` [Example 215, 6-((2,3-dihydrobenzo[b][1,4]dioxin-6-yl)sulfonyl)-2-((1-methyl-1H-pyrazol-3-yl)methyl)phthalazin-1(2H)-one], the Emax worked out at 93.4% and the EC50 was found to be 25.2 nM.
Consider `CCOc1ccc(S(=O)(=O)c2ccc3c(=O)n(Cc4ccn(C)n4)ncc3c2)cc1` [Example 216, 6-((4-ethoxyphenyl)sulfonyl)-2-((1-methyl-1H-pyrazol-3-yl)methyl)phthalazin-1(2H)-one], for which the Emax amounted to 103% and the EC50 came out at 74.3 nM.
In the same order, the values of `C[C@@H]1Cc2cc(S(=O)(=O)c3ccc4c(=O)n(Cc5ccn(C)n5)ncc4c3)ccc2O1` [Example 217, (R)-2-((1-methyl-1H-pyrazol-3-yl)methyl)-6-((2-methyl-2,3-dihydrobenzofuran-5-yl)sulfonyl)phthalazin-1(2H)-one] are 115% and 60.2 nM.
Take `Cn1ccc(Cn2ncc3cc(S(=O)(=O)c4ccc(OC(F)(F)F)cc4)ccc3c2=O)n1` [Example 218, 20((1-methyl-1H-pyrazol-3-yl)methyl)-6-((4-(trifluoromethoxy)phenyl)sulfonyl)phthalazin-1(2H)-one]: the Emax stood at 116% and the EC50 worked out at 192 nM.
As to `Cc1coc2ccc(S(=O)(=O)c3ccc4c(=O)n(Cc5cc[nH]n5)ncc4c3)cc12` [Example 220, 2-((1H-pyrazol-3-yl)methyl)-6-((3-methylbenzofuran-5-yl)sulfonyl)phthalazin-1(2H)-one], the Emax was 84.7% and the EC50 stood at 67.7 nM.
